Consider twelve compounds from patent US11812753B2, “Solvent compositions promoting plant growth” (priority 2020, dated 2023).

Read-outs that look alike come from different tables or passages of the source.

Data set [1] is described as follows: Two-week stability test of solvent / Warden CX mixtures (viscosity, density). Type of data set: physicochemical. The settings on record: mixture with Warden CX; for Post: Density / Post: Viscosity: after two weeks at 54° C., 4° C. and/or −10° C.; for Pre: Viscosity: before two-week stability test. As to the method: The same seven solvent compositions were then evaluated for their compatibility with Warden® CX, which is a combination of fungicide and insecticide (containing a proprietary solvent) formulated for soybean seed treatment and sold by Winfield® United. Specifically, 0.5 fl. oz./cwt. of each experimental solvent was added to 50 mL of Warden® CX. […] The mixtures were then evaluated for stability by placing the samples at 54° C., 4° C. and/or at −10° C. for a two-week period. Viscosity levels were measured before and after the two-week stability test, along with the post-test density levels, and the results shown below in Table 6.

A short description of data set [2]: Active ingredient loading of PGR components in solvent compositions by HPLC. Format: physicochemical. The source says:
To understand if changing the active component loading rate would impact the biological performance of the PGR compositions, two solvent compositions, methoxy propanol and tetrahydrofuryl alcohol, were mixed with various PGR compositions (4×) selected for their favorable solubility properties, curing properties, and compatibility with Rhizobia. Propylene glycol was again included as a control sample, and each composition was mixed with BHT (4×). Citric acid was excluded from all samples. The weight percentage of each PGR component mixed with each solvent composition is shown below in Table 7.
The HPLC was performed using an Agilent 1260 device with a diode-array detector for active component quantification.
[…]. As shown, the deviation was less than 1% for each composition.

The conditions of data set [3]: from SDS of each solvent, cited from earlier work.
Data set [4] in a line: Viscosity of solvent compositions (modular compact rheometer). The settings on record: solvent mixed with 0.1 wt % BHT and 4x PGR composition; 25° C. Format: physicochemical. As to the method: (§1) Propylene glycol was used as a control. The evaluated solvents, along with the mass of each PGR component and BHT, are shown below in Table 4. The density and viscosity of the solvent compositions were then determined. The density measurements were obtained using a DMA™ 4500, which was calibrated using 20° C. DI water. Viscosity was determined using a modular compact rheometer. Viscosity levels were measured at 25° C.

Data set [5] can be described thus: Density of solvent compositions (DMA 4500). Format: physicochemical. The settings on record: solvent mixed with 0.1 wt % BHT and 4x PGR composition. As to the method:
as §1

Take `COCC(C)O` (centres unmarked) [1-methoxy-2-propanol]: in data set [1], the “change of viscosity over the two-week period” value is reported as “decreasing the most”. In addition, the “Post: Density” value in data set [1] amounted to 1.0440 g/mL. The “Post: Viscosity” value in data set [1] is 106.18 cPa. Also, the “Pre: Viscosity” value in data set [1] was 1764.63 cPa. For the same compound, the “Aux. by HPLC” value was 0.674% in data set [2] (1st composition of Table 7, auxin added 0.6596%); 0.630% in data set [2] (2nd composition of Table 7, auxin added 0.6136%); 0.531% in data set [2] (3rd composition of Table 7, auxin added 0.5215%); 0.502% in data set [2] (4th composition of Table 7, auxin added 0.4985%); 0.579% in data set [2] (5th composition of Table 7, auxin added 0.5675%). The “Cyt. by HPLC” value in data set [2] (1st composition of Table 7, cytokinin added 0.0614%) is reported as 0.072%; in data set [2] (2nd composition of Table 7, cytokinin added 0.1074%) it was 0.126%; in data set [2] (3rd composition of Table 7, cytokinin added 0.1534%), 0.178%; in data set [2] (4th composition of Table 7, cytokinin added 0.1994%), 0.235%; in data set [2] (5th composition of Table 7, cytokinin added 0.1074%) it was 0.130%. In addition, the “Gib. by HPLC” value came out at 0.046% in data set [2] (1st composition of Table 7, gibberellin added 0.0460%); 0.045% in data set [2] (2nd composition of Table 7, gibberellin added 0.0460%); 0.088% in data set [2] (3rd composition of Table 7, gibberellin added 0.0920%); 0.069% in data set [2] (4th composition of Table 7, gibberellin added 0.0690%); 0.089% in data set [2] (5th composition of Table 7, gibberellin added 0.0920%). Besides, the “Boiling Point” value in data set [3] was 118 C. °. Further, the Density in data set [3] was 0.916 g/mL. The “Flash Point” value in data set [3] is listed as 34 C. °.
Compound `CCCCOC(=O)C(C)O` (centres unmarked) [Butyl lactate] displayed a Viscosity in data set [4] of 5.0736 cPa. Also, in data set [1], the “Post: Density” value was determined as 1.1067 g/mL, the “Post: Viscosity” value came to 387.57 cPa and the “Pre: Viscosity” value was found to be 901.94 cPa. Moreover, in data set [3], the “Boiling Point” value was 186 C. °, the Density is 0.984 g/mL, the “Flash Point” value was 69 C. ° and the Solubility entry is on record as “Slightly”.
For `CCCCCOC(C)=O` [Amyl Acetate], in data set [3], the “Boiling Point” value was 149 C. °, the Density was 0.87 g/mL, the “Flash Point” value is 40 C. ° and the Solubility result is listed as “Insoluble”. In addition, the Viscosity in data set [3] is on record as 1.58 cP.
Ethyl hexanol: in data set [3], the “Boiling Point” value is recorded as 185 C. °, the Density is listed as 0.833 g/mL and the “Flash Point” value was 75 C. °.
In turn, `OCC1CCCO1` (centres unmarked) [Tetrahydrofurfyl Alcohol] registered a Density in data set [5] of 1.0548 g/mL. In data set [4], this compound showed a Viscosity of 5.4046 cPa. In data set [1], the “Post: Density” value is listed as 1.0825 g/mL, the “Post: Viscosity” value worked out at 150.59 cPa and the “Pre: Viscosity” value is listed as 962.75 cPa. In addition, in data set [2] (6th composition of Table 7, auxin added 0.4958%), the “Aux. by HPLC” value came to 0.497%. For the same compound, in data set [2] (6th composition of Table 7, cytokinin added 0.094%), the “Cyt. by HPLC” value is 0.108%. In addition, in data set [2] (6th composition of Table 7, gibberellin added 0.0804%), the “Gib. by HPLC” value was 0.081%. For the same compound, in data set [3], the “Boiling Point” value is given as 178 C. °, the Density is 1.054 g/mL, the “Flash Point” value is 75 C. ° and the Solubility entry was “Miscible”.
Take `CCCCC(CC)COC(=O)C(C)O` (centres unmarked) [Lactic acid, 2-ethylhexyl ester]: in data set [3], the “Boiling Point” value is reported as 122 C. ° and the Density is 1.2 g/mL.
On to `CC(O)CO` (centres unmarked) [Propylene Glycol, reference compound], for which, in data set [3], the “Boiling Point” value is recorded as 205 C. °, the Density is 1.12 g/mL, the “Flash Point” value is reported as 138 C. ° and the Solubility entry is “Soluble”. Besides, in data set [3] (listed as propylene glycol), the Solubility result was “soluble”.
In turn, `CCCCOCCOCCO` [Diethylene glycol butyl ether] returned a Viscosity in data set [4] of 7.7338 cPa. Further, in data set [1], the “Post: Density” value stood at 1.0486 g/mL, the “Post: Viscosity” value was 45.06 cPa and the “Pre: Viscosity” value is reported as 112.48 cPa. Moreover, in data set [3], the “Boiling Point” value is 228 C. °, the Density is 0.953 g/mL, the “Flash Point” value is 99 C. ° and the Solubility entry is listed as “Miscible”.
Regarding `CCCCOCCO` [Ethylene glycol butyl ether, 2-butoxyl ethanol], in data set [1], the “Post: Density” value is 1.0263 g/mL, the “Post: Viscosity” value is given as 69.69 cPa and the “Pre: Viscosity” value stood at 138.49 cPa. In data set [3], the “Boiling Point” value is recorded as 171 C. °, the Density is listed as 0.902 g/mL and the “Flash Point” value is recorded as 67 C. °.
On to `CC(=O)OCC(COC(C)=O)OC(C)=O` [Glyceryl triacetate], for which, in data set [3], the “Boiling Point” value is 259 C. °, the Density is 1.158 g/mL, the “Flash Point” value was 148 C. ° and the Solubility entry is “Soluble”. Also, the Solubility result in data set [3] (listed as glyceryl triacetate) was “soluble”.
As to `CC(=O)OCCCCCCC=O` [Oxo-heptyl acetate], in data set [3], the “Boiling Point” value is recorded as 192 C. °, the Density is 0.886 g/mL, the “Flash Point” value was 43 C. ° and the Solubility entry was “Slightly”.
Regarding `CCOC(C)=O` [Ethyl acetate], in data set [3], the “Boiling Point” value was 77 C. °, the “Flash Point” value was −4.4 C. ° and the Solubility result is reported as “Miscible”.
